From BindingDB's records for doi:10.1016/0960-894X(96)00068-6 (1996)

Key:
[1] = Inhibition of jack bean alpha-mannosidase
[2] = Compound was evaluated for inhibition of beta-glucosidase from almonds(sigma G 4511).
[3] = Compound was evaluated for inhibition of alpha-fucosidase from bovine kidney(sigma F 5884).
[4] = Compound was evaluated for inhibition of beta-galactosidase from aspergillus oryzae (sigma G 7256).
[5] = Compound was evaluated for inhibition of alpha-galactosidase from green coffee beans (sigma G 8507).

IC50 [1]: > 1000 µM | IC50 [2]: 80 µM | IC50 [3]: 270 µM | IC50 [4]: > 1000 µM | IC50 [5]: > 1000 µM
SMILES: CCCCN1CC(C)C(O)C(O)C1 (stereo not given) [1-Butyl-5-methyl-piperidine-3,4-diol]
